Among the data in patent US11299501B2 (BRISTOL-MYERS SQUIBB COMPANY, priority 2017, dated 2022) are IC50 values, retold here.

The IC50 is the concentration needed to halve the response being measured. Low values mean higher potency, high ones lower potency.

The structures appear in SMILES notation.

Assay type in all cases: cell-based
The target of one test is T1, human TLR8 (Homo sapiens, UniProt Q9NR97).
T1 construct: host or cells: HEK-Blue cells
T1 sequence (Q9NR97 27-1041): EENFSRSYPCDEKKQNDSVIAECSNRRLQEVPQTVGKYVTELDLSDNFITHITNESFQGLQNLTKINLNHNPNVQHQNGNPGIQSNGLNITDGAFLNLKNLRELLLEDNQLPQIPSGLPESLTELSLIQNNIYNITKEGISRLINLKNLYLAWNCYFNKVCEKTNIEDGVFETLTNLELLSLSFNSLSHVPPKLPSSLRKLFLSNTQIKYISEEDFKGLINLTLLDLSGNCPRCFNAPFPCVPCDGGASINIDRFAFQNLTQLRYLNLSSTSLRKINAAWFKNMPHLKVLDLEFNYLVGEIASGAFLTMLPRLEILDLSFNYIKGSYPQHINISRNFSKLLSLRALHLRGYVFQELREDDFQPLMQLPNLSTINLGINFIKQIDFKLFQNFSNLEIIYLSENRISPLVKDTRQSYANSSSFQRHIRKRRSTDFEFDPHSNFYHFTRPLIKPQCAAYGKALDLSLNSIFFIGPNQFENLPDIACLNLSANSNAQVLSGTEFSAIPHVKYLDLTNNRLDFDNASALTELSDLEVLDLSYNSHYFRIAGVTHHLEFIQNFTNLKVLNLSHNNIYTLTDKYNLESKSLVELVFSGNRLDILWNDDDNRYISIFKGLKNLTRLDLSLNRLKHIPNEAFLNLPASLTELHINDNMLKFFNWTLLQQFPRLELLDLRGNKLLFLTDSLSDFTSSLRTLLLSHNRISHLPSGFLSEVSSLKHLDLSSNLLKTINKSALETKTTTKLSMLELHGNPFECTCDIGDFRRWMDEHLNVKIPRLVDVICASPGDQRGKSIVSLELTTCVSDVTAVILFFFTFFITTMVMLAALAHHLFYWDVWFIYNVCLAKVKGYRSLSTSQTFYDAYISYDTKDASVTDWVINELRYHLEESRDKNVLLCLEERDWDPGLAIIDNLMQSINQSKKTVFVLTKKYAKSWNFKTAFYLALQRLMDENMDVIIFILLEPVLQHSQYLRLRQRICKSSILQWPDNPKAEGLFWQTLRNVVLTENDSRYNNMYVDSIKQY
The experiment in a line: TLR8 inhibition reporter assay (HEK-Blue SEAP). Conditions: cells overexpressing human TLR8, SEAP reporter, stimulated with R848 15.9 μM, 22 hour incubation. A digest of the protocol: (§1)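 HEK-Blue cells expressing human TLR7, TLR8 or TLR9 with NF-κB/AP-1-driven SEAP reporter pre-treated 30 min at room temperature with compound (0.05 nM–50 μM), then stimulated with gardiquimod 7.5 μM (TLR7), R848 15.9 μM (TLR8) or ODN2006 5 nM (TLR9). SEAP read after 22 h at 37 °C; % inhibition relative to agonist+DMSO and reference-inhibitor wells.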
A general note: A reporter such as luciferase makes a cellular process visible.

The next test has as its target T2, human TLR7 (Homo sapiens, UniProt Q9NYK1).
T2 construct: host or cells: HEK-Blue cells
T2 sequence (Q9NYK1 27-1049): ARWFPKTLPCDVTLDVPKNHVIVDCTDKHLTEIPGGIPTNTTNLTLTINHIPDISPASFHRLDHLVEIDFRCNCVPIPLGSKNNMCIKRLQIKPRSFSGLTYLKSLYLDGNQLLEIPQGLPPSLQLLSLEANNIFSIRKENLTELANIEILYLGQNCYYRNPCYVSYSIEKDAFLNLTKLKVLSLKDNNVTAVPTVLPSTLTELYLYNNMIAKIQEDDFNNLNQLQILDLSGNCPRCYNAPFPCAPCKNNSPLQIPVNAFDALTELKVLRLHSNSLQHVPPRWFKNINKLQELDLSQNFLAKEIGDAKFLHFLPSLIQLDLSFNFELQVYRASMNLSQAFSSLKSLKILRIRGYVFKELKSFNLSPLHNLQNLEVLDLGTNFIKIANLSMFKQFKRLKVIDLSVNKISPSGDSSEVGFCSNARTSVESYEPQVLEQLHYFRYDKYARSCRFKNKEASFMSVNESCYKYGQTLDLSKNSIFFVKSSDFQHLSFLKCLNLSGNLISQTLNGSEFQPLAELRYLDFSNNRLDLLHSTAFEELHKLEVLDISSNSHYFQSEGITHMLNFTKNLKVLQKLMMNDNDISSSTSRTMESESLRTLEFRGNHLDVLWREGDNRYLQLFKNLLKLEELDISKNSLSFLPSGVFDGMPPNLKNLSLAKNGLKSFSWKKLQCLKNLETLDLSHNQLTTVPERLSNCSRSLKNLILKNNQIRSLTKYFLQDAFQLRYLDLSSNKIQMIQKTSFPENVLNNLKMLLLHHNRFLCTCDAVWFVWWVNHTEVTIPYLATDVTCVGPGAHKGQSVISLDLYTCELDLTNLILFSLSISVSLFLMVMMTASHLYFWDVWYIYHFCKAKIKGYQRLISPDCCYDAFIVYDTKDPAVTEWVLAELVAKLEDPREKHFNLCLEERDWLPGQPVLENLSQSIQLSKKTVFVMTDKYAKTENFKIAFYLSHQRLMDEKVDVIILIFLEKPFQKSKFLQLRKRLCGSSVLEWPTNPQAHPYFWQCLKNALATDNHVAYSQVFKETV
The test can be described thus: TLR7 inhibition reporter assay (HEK-Blue SEAP). The conditions noted are these: cells overexpressing human TLR7, SEAP reporter, stimulated with gardiquimod 7.5 μM, 22 hour incubation. A digest of the protocol: as §1

In the next test the target is T3, human TLR9 (Homo sapiens, UniProt Q9NR96).
T3 construct: host or cells: HEK-Blue cells
T3 sequence (Q9NR96 26-1032): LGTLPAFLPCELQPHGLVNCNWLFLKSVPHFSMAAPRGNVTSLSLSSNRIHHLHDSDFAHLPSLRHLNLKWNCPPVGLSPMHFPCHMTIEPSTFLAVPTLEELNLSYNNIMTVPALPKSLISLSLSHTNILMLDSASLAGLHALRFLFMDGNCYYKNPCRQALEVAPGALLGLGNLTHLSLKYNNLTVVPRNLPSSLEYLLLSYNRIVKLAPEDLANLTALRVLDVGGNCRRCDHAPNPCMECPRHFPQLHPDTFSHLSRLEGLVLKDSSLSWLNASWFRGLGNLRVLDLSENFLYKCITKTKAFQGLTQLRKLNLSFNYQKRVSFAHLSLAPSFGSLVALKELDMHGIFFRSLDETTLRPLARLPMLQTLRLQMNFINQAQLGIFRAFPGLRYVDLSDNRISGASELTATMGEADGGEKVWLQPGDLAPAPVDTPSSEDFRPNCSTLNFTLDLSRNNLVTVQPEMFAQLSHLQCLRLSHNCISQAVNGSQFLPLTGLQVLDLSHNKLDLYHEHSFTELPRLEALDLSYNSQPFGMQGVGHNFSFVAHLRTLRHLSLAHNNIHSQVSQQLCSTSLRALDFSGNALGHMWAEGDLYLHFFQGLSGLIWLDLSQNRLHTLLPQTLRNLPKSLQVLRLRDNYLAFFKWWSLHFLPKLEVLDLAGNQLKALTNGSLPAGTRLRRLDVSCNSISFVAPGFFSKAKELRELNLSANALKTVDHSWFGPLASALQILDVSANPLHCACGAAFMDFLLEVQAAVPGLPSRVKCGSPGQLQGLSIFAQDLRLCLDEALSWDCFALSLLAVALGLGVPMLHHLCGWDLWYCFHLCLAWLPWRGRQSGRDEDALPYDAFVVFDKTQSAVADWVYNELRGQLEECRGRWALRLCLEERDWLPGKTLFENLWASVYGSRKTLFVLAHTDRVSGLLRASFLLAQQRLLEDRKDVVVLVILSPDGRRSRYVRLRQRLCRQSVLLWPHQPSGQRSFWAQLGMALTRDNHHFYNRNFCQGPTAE
The experiment in a line: TLR9 inhibition reporter assay (HEK-Blue SEAP). Conditions: cells overexpressing human TLR9, SEAP reporter, stimulated with ODN2006 5 nM, 22 hour incubation. A digest of the protocol:
as §1

With `CNC(=O)CN1CCC(c2ncc3[nH]c(-c4cc(OC)c5ncnn5c4)c(C(C)C)c3n2)CC1` [Example 35, 2-(4-(7-isopropyl-6-(8-methoxy-[1,2,4]triazolo[1,5-a]pyridin-6-yl)-5H-pyrrolo[3,2-d]pyritnidin-2-yl)piperidin-1-yl)-N-methylacetamide], the IC50 at human TLR8 was < 100 nM; on human TLR7, < 100 nM; at human TLR9, > 50000 nM.

As for `COc1ccc(-c2[nH]c3cnc(C4CCN(C5CCN(CC(C)C)CC5)CC4)nc3c2C)cc1OC` [Example 6, 6-(3,4-dimethoxyphenyl)-2-(1′-isobutyl-[1,4′-bipiperidin]-4-yl)-7-methyl-5H-pyrrolo[3,2-d]pyrimidine], the IC50 against human TLR8, on human TLR7 and on human TLR9 was 100 to 1000 nM in each case.

As for `CNC(=O)CN1CCC(c2ncc3[nH]c(-c4cn5ncnc5c(C)c4C)c(C(C)C)c3n2)CC1` [Example 9, 2-(4-(6-(7,8-dimethyl-[1,2,4]triazolo[1,5-a]pyridin-6-yl)-7-isopropyl-5H-pyrrolo[3,2-d]pyrimidin-2-yl)piperidin-1-yl)-N-methylacetamide], the IC50 against human TLR8 is < 100 nM; on human TLR7 it was < 100 nM; against human TLR9, 1000 to 50000 nM.

Turning to `CCc1c(-c2ccc(OC)c(OC)c2)[nH]c2nnc(C3CCNCC3)cc12` [Example 1, 6-(3,4-dimethoxyphenyl)-5-ethyl-3-(piperidin-4-yl)-7H-pyrrolo[2,3-c]pyridazine], the values for the IC50 against human TLR8, against human TLR7 and on human TLR9 were 1000 to 50000 nM, 100 to 1000 nM and 100 to 1000 nM, respectively.

Consider `CCc1c(-c2ccc(OC)c(OC)c2)[nH]c2cnc(-c3nnc(C(C)(C)N)o3)nc12` [Example 39, 2-(5-(6-(3,4-dimethoxyphenyl)-7-ethyl-5H-pyrrolo[3,2-d]pyrimidin-2-yl)-1,3,4-oxadiazol-2-yl)propan-2-amine], for which the IC50 against human TLR8 is 1000 to 50000 nM; against human TLR7, 1000 to 50000 nM; at human TLR9, > 50000 nM.

For `CCc1c(-c2ccc(OC)c(OC)c2)[nH]c2cnc(-c3nnc(C[C@H]4CCCCN4)o3)nc12` [Example 36, (R)-2-(6-(3,4-dimethoxyphenyl)-7-ethyl-5H-pyrrolo[3,2-d]pyrhnidin-2-yl)-5-(piperidin-2-ylmethyl)-1,3,4-oxadiazole], the IC50 on human TLR8 was in the range of 100 to 1000 nM; at human TLR7, 1000 to 50000 nM; on human TLR9, 1000 to 50000 nM.

As to `Cc1c(-c2[nH]c3cnc(C4CCN(CC(=O)N(C)C)CC4)nc3c2C(C)C)cn2ncnc2c1C` [Example 10, 2-(4-(6-(7,8-dimethyl-[1,2,4]triazolo[1,5-a]pyrimidin-6-yl)-7-isopropyl-5H-pyrrolo[3,2-d]pyrimidin-2-yl)piperidin-1-yl)-N,N-dimethylacetantide], the IC50 on human TLR8 is < 100 nM; against human TLR7 it was < 100 nM; against human TLR9, 1000 to 50000 nM.

In the case of `CCc1c(-c2ccc(OC)c(OC)c2)[nH]c2cnc(C(=O)N3CC4CNCC4C3)nc12` (stereo not drawn) [Example 55, (6-(3,4-dimethoxyphenyl)-7-ethyl-5H-pyrrolo[3,2-d]pyrimidin-2-yl)(hexahydropyrrolo[3,4-c]pyrrol-2(1H)-yl)methanone], the IC50 against human TLR8, against human TLR7 and against human TLR9 was 1000 to 50000 nM each time.

Turning to `COc1cc(-c2[nH]c3cnc(C4CCN(C(=O)CN(C)C)CC4)nc3c2C(C)C)cn2ncnc12` [Example 11, 2-(dirnethylamino)-1-(4-(7-isopropyl-6-(8-methoxy-[1,2,4]triazolo[1,5-a]pyridin-6-yl)-5H-pyrrolo[3,2-d]pyrimidin-2-yl)piperidin-1-yl)ethan-1-one], the IC50 at human TLR8 is < 100 nM; against human TLR7, < 100 nM; against human TLR9 it was 1000 to 50000 nM.

As to `COc1ccc(-c2[nH]c3cnc(C4CCNCC4)nc3c2C(C)C)cc1OC` [Example 17, 6-(3,4-dimethoxyphenyl)-7-isopropyl-2-(piperidin-4-yl)-5H-pyrrolo[3,2-d]pyrimidine], the IC50 was < 100 nM at human TLR8, < 100 nM at human TLR7 and 100 to 1000 nM on human TLR9.
